Assay results as given in ChEMBL document CHEMBL5131473, “One-pot synthesis of oxoaporphines as potent antitumor agents and investigation of their mechanisms of actions” (Eur J Med Chem, 2022).
Calls of active or inactive are those of the source. The calls are words filed in the database; no cut-off is given here.

What was measured:
T-24 [1] = assay: Induction of DNA damage in human T24 cells assessed as increase in gamma H2AX phosphorylation at 2 uM incubated for 24 hrs by Hoechst33258 staining based immunofluorescence assay; assay type: functional, cell-based
T-24 [2] = assay: Induction of DNA damage in human T24 cells assessed as DNA strand breakage by measuring comet formation at 2 uM incubated for 24 hrs by comet assay; assay type: functional, cell-based
T-24 [3] = assay: Induction of mitochondrial membrane potential dysfunction in human T24 cells assessed as change in morphology at 2 to 4 uM by Mitotracker green dye based fluorescence microscopy; assay type: functional, cell-based; conditions: dose 2-4 µM
T-24 [4] = assay: Induction of mitochondrial mediated apoptosis in human T24 cells assessed as decrease in Bcl-2 protein expression at 2 to 4 uM incubated for 24 hrs by Western blotting analysis; assay type: functional, cell-based; conditions: dose 2-4 µM
T-24 [5] = assay: Induction of mitochondrial mediated apoptosis in human T24 cells assessed as increase in Bak protein expression at 2 to 4 uM incubated for 24 hrs by Western blotting analysis; assay type: functional, cell-based; conditions: dose 2-4 µM
T-24 [6] = assay: Induction of apoptosis in human T24 cells assessed as increase in caspase 3 activity at 2 uM (Rvb= 3.1%); assay type: functional
T-24 [7] = assay: Induction of apoptosis in human T24 cells assessed as increase in caspase 9 activity at 2uM (Rvb= 7.2%); assay type: functional
T-24 [8] = assay: Induction of cell cycle arrest in human T24 cells assessed as accumulation of cells at G1 phase at 4 uM incubated for 24 hrs by propidium iodide/RNase A staining based flow cytometry analysis (reference value: 51.71 %); assay type: functional
T-24 [9] = assay: Induction of apoptosis in human T24 cells assessed as necrotic cells at 4 uM incubated for 24 hrs by Annexin-V/PI staining based flow cytometry analysis (reference value: 1.92 %); assay type: functional
T-24 [10] = assay: Induction of apoptosis in human T24 cells assessed as late apoptotic cells at 6 uM incubated for 24 hrs by Annexin-V/PI staining based flow cytometry analysis (reference value: 0.543 %); assay type: functional
T-24 [11] = assay: Induction of apoptosis in human T24 cells assessed as early apoptotic cells at 6 uM incubated for 24 hrs by Annexin-V/PI staining based flow cytometry analysis (reference value: 3.27 %); assay type: functional
T-24 [12] = assay: Induction of apoptosis in human T24 cells assessed as viable cells at 6 uM incubated for 24 hrs by Annexin-V/PI staining based flow cytometry analysis (reference value: 94.3 %); assay type: functional; conditions: read-out: Activity
T-24 [13] = assay: Induction of mitochondrial membrane potential dysfunction in human T24 cells assessed as disappearance of cristae at 2 uM incubated for 24 hrs by TEM analysis; assay type: functional, cell-based
T-24 [14] = assay: Induction of DNA damage in human T24 cells assessed as increase in gamma H2AX expression at 0.5 to 1 uM incubated for 24 hrs by Western blot analysis; assay type: functional, cell-based; conditions: dose 0.5-1 µM
T-24 [15] = assay: Inhibition of cell migration in human T24 cells assessed as recovery of wound area at 0.25 uM measured after 24 hrs by wound healing assay based fluorescence microscopy; assay type: functional; design: scale not given: the % may be the effect or the level left
T-24 [16] = assay: Induction of cell cycle arrest in human T24 cells assessed as increase in CDK1 expression at 0.5 to 1 uM incubated for 24 hrs by chemiluminescence based Western blotting analysis; assay type: functional; conditions: dose 0.5-1 µM, DDE = dose-dependent effect
T-24 [17] = assay: Induction of apoptosis in human T24 cells assessed as condensation of nuclei at 0.5 uM by Hoechst33258 staining based fluorescence microscopy; assay type: functional, cell-based
T-24 [18] = assay: Induction of mitochondrial membrane potential dysfunction in human T24 cells assessed as depolarised cells at 0.5 uM incubated for 24 hrs by JC-1 staining based flow cytometry (reference value: 6.20%); assay type: functional
T-24 [19] = assay: Induction of mitochondrial membrane potential dysfunction in human T24 cells assessed as depolarised cells at 1 uM incubated for 24 hrs by JC-1 staining based flow cytometry (reference value: 6.20%); assay type: functional
T-24 [20] = assay: Induction of mitochondrial mediated apoptosis in human T24 cells assessed as decrease in Bcl-2 protein expression at 0.5 to 1 uM incubated for 24 hrs by Western blotting analysis; assay type: functional, cell-based; conditions: dose 0.5-1 µM
T-24 [21] = assay: Induction of mitochondrial mediated apoptosis in human T24 cells assessed as upregulation of cytochrome c expression at 0.5 to 1 uM incubated for 24 hrs by Western blotting analysis; assay type: functional, cell-based; conditions: dose 0.5-1 µM
T-24 [22] = assay: Induction of mitochondrial mediated apoptosis in human T24 cells assessed as upregulation of apaf-1 expression at 0.5 to 1 uM incubated for 24 hrs by Western blotting analysis; assay type: functional, cell-based; conditions: dose 0.5-1 µM
T-24 [23] = assay: Induction of ROS accumulation in human T24 cells assessed as increase in intracellular ROS level at 0.5 uM by […] based flow cytometry; assay type: functional, cell-based
T-24 [24] = assay: Induction of ROS generation in human T24 cells at 0.5 uM by fluorescence microscopy; assay type: functional, cell-based
T-24 [25] = assay: Induction of apoptosis in human T24 cells assessed as increase in caspase 3 activity at 1 uM (Rvb= 3.1%); assay type: functional
T-24 [26] = assay: Induction of cell cycle arrest in human T24 cells assessed as accumulation of cells at G2/M phase at 0.5 uM incubated for 24 hrs by propidium iodide/RNase A staining based flow cytometry analysis (reference value: 5.82 %); assay type: functional
T-24 [27] = assay: Induction of apoptosis in human T24 cells assessed as late apoptotic cells at 0.5 uM incubated for 24 hrs by Annexin-V/PI staining based flow cytometry analysis (reference value: 0.543 %); assay type: functional
T-24 [28] = assay: Induction of apoptosis in human T24 cells assessed as contracted small fragmented nuclei at 0.5 uM by Hoechst33258 staining based fluorescence microscopy; assay type: functional, cell-based
T-24 [29] = assay: Induction of apoptosis in human T24 cells assessed as condensed chromatin at 0.5 uM by Hoechst33258 staining based fluorescence microscopy; assay type: functional, cell-based
T-24 [30] = assay: Induction of mitochondrial membrane potential dysfunction in human T24 cells assessed as mitochondrial fragment condensation at 0.5 to 1 uM by mito-tracker green dye based fluorescence microscopy; assay type: functional, cell-based; conditions: dose 0.5-1 µM
T-24 [31] = assay: Induction of DNA damage in human T24 cells assessed as increase in […] p53 expression at 10 to 15 uM incubated for 24 hrs by Western blot analysis; assay type: functional, cell-based; conditions: dose 10-15 µM
T-24 [32] = assay: Induction of cell cycle arrest in human T24 cells assessed as increase in CDK1 expression at 10 to 15 uM incubated for 24 hrs by chemiluminescence based Western blotting analysis; assay type: functional; conditions: dose 10-15 µM, DDE = dose-dependent effect
T-24 [33] = assay: Induction of mitochondrial membrane potential dysfunction in human T24 cells assessed as change in morphology at 10 to 15 uM by Mitotracker green dye based fluorescence microscopy; assay type: functional, cell-based; conditions: dose 10-15 µM
T-24 [34] = assay: Induction of mitochondrial mediated apoptosis in human T24 cells assessed as upregulation of cytochrome c expression at 10 to 15 uM incubated for 24 hrs by Western blotting analysis; assay type: functional, cell-based; conditions: dose 10-15 µM
T-24 [35] = assay: Induction of ROS accumulation in human T24 cells assessed as increase in intracellular ROS level at 10 uM by […] based flow cytometry; assay type: functional, cell-based
T-24 [36] = assay: Induction of apoptosis in human T24 cells assessed as early apoptotic cells at 20 uM incubated for 24 hrs by Annexin-V/PI staining based flow cytometry analysis (reference value: 3.27 %); assay type: functional
T-24 [37] = assay: Cytotoxicity against human T24 cells assessed as decrease in cell viability at 10 uM by MTT assay; assay type: functional, cell-based; conditions: TDE = time-dependent effect

O=C1c2cc([N+](=O)[O-])ccc2-c2ccc([N+](=O)[O-])c3ccnc1c23
Activity (T-24 [1]): Active
Activity (T-24 [2]): Active
Activity (T-24 [3]): Active
Activity (T-24 [4]): Active
Activity (T-24 [5]): Active
Activity (T-24 [6]): 24.6%
Activity (T-24 [7]): 27.5%
Activity (T-24 [8]): 15.29%
Activity (T-24 [9]): 2.8%
Activity (T-24 [10]): 6.56%
Activity (T-24 [11]): 36.2%
viability at 6 µM (T-24 [12]): 54.1%
Activity (T-24 [13]): Active

O=C1c2ccccc2-c2ccc([N+](=O)[O-])c3ccnc1c23
Activity (T-24 [14]): Active
Activity (T-24 [15]): 15.9%
Activity (T-24 [16]): Dde
Activity (T-24 [17]): Active
Activity (T-24 [18]): 37%
Activity (T-24 [19]): 44.5%
Activity (T-24 [20]): Active
Activity (T-24 [21]): Active
Activity (T-24 [22]): Active
Activity (T-24 [23]): Active
Activity (T-24 [24]): Active
Activity (T-24 [25]): 38.8%
Activity (T-24 [26]): 52.05%
Activity (T-24 [27]): 5.1%
Activity (T-24 [28]): Active
Activity (T-24 [29]): Active
Activity (T-24 [30]): Active

O=C1c2ccccc2-c2cccc3ccnc1c23
Activity (T-24 [31]): Active
Activity (T-24 [32]): Dde
Activity (T-24 [33]): Active
Activity (T-24 [34]): Active
Activity (T-24 [35]): Active
Activity (T-24 [36]): 36.6%
Activity (T-24 [37]): Tde
